Values quoted from earlier work as cited in publication PMC12005229, “Final results from the phase Ia/Ib study of the novel bromodomain and extra-terminal domain inhibitor, BI 894999, in patients with advanced solid tumors or diffuse large B-cell lymphoma” (ESMO Open, 2025).

Key:
[1] = system: patients with relapsed/refractory acute myeloid leukemia; parameters: method as in PMID 33934351; settings: 44 patients with relapsed/refractory acute myeloid leukemia; cited from earlier work
[2] = system: patients with relapsed/refractory DLBCL; parameters: method as in PMID 34581757; settings: in combination with venetoclax and rituximab, 39 patients with relapsed/refractory DLBCL; cited from earlier work

Row | Structure (SMILES) | efficacy of combination with venetoclax compared with monotherapy [1] | complete responses [2] | overall response rate [2]
1 | CCS(=O)(=O)Nc1ccc(Oc2ccc(F)cc2F)c(-c2cn(C)c(=O)c3[nH]ccc23)c1 [mivebresib] | higher efficacy in the combination group | – | –
2 | Cc1sc2c(c1C)C(c1ccc(Cl)cc1)=N[C@@H](CC(=O)NCCCN1CCN(C)CC1)c1nnc(C)n1-2 [RO6870810] | – | 20.5% | 38.5%
